Like-named read-outs stand apart in the source and are kept apart here.
Assays:
gt 1b Replicon = test: HCV replicon assay, compound inhibitory potency (Replicon EC50); format: cell-based; conditions: Hepatitis C virus, GT1B
Description: Measurement of inhibition by compounds was performed using the HCV replicon system. Several different replicons encoding different HCV genotypes or mutations were used. In addition, potency measurements were made using different formats of the replicon assay, including different ways of measurements and different plating formats. See Jan M. Vrolijk et al., A replicons-based bioassay for the measurement of interferons in patients with chronic hepatitis C, 110 J. VIROLOGICAL METHODS 201 (2003); Steven S. Carroll et al., Inhibition of Hepatitis C Virus RNA Replication by 2′-Modified Nucleoside Analogs, 278(14) J. BIOLOGICAL CHEMISTRY 11979 (2003). However, the underlying principles are common to all of these determinations, and are outlined below.
Stable neomycin phosphotransferase encoding replicon-harboring cell lines were used, so all cell lines were maintained under G418 selection prior to the assay. In some cases the cell lines encoded a luciferase:Neor fusion and could be assayed either directly by determination of RNA copy number, or indirectly through measurement of the luciferase activity.
To initiate an assay, replicon cells were plated in the presence of a dilution series of test compound in the absence of G418. Typically, the assays were performed in a 96-well plate format for manual operation, or a 384 well plate in an automated assay. Replicon cells and compound were incubated for 24-48 hours, depending on the assay. At the end of the assay, cells are washed free of media and compound and then lysed. For direct quantitation, RNA levels were measured by ^32P-probe hybridization and protection, or in a TAQMAN based assay and normalized to cellular cyclophilin A RNA levels. In some cases, luciferase activity was measured using a conventional luciferase assay. In all cases EC50 determinations were calculated as a percent of a DMSO control by fitting the data to a four parameter fit function.

[1] = molecular target: NS3/4A protease gt 1b A156V (Hepatitis C virus genotype 1b, UniProt P26663, A1182V); test: HCV NS3 protease time-resolved fluorescence (TRF) assay, NS3/4A inhibitory activity (Ki), gt 1b A156V mutant; format: biochemical, hepatitis C virus (HCV)
Description: (§1) The HCV NS3 protease inhibitory activity of the present compounds may be tested using assays known in the art. One such assay is HCV NS3 protease time-resolved fluorescence (TRF) assay as described below and in International Patent Application Publication WO2006/102087. Other examples of such assays are described in e.g., International Patent Application Publication WO2005/046712. HCV NS3 protease inhibitors, such as those described herein have a Ki less than 50 μM, such as less than 10 μM, and less than 100 nM. Ki is determined by an NS3 protease assay. The assay is performed in a final volume of 100 μl in assay buffer containing 50 mM HEPES, pH 7.5, 150 mM NaCl, 15% glycerol, 0.15% TRITON X-100, 10 mM DTT, and 0.1% PEG 8000. NS3 protease is pre-incubated with various concentrations of inhibitors in DMSO for 30 minutes. The reaction is initiated by adding the TRF peptide substrate (final concentration 100 nM). NS3 mediated hydrolysis of the substrate is quenched after 1 hour at room temperature with 100 μl of 500 mM MES, pH 5.5. Product fluorescence is detected using either a VICTOR V2 or FUSION fluorophotometer (Perkin Elmer Life and Analytical Sciences) with excitation at 340 nm and emission at 615 nm with a 400 μs delay. Testing concentrations of different enzyme forms are selected to result in a signal to background ratio (S/B) of 10-30. IC50 values are derived using a standard four-parameter fit to the data. Ki values are derived from IC50 values using the following formula,
(§2) IC50=Ki(1+[S]/KM), Eqn (1),
(§3) where [S] is the concentration of substrate peptide in the reaction and KM is the Michaelis constant. See P. Gallinari et al., 38 BIOCHEM. 5620-32 (1999); P. Gallinari et al., 72 J. VIROL. 6758-69 (1998); M. Taliani et al., 240 ANAL. BIOCHEM. 60-67 (1996).
(§4) One such assay is HCV NS3 protease time-resolved fluorescence (TRF) assay as described below and in Mao et al., Anal Biochem. 373:1-8, 2008 and International Patent Application Publication WO 2006/102087. A NS3 protease assay can be performed, for example, in a final volume of 100 μl assay buffer containing 50 mM HEPES, pH 7.5, 150 mM NaCl, 15% glycerol, 0.15% TRITON X-100, 10 mM DTT, and 0.1% PEG 8000. NS3 and NS4A protease is pre-incubated with various concentrations of inhibitors in DMSO for 30 minutes. The reaction is initiated by adding the TRF peptide substrate (final concentration 100 nM). NS3 mediated hydrolysis of the substrate is quenched after 1 hour at room temperature with 100 μl of 500 mM MES, pH 5.5. Product fluorescence is detected using either a VICTOR V2 or FUSION fluorophotometer (Perkin Elmer Life and Analytical Sciences) with excitation at 340 nm and emission at 615 nm with a 400 μs delay. Testing concentrations of different enzyme forms are selected to result in a signal to background ratio (S/B) of 10-30. IC50 values are derived using a standard four-parameter fit to the data. Ki values are derived from IC50 values using the following formula,
as §3, with “(1996); Mao et al., Analytical Biochemistry 373: 1-8, 2008. Measuring Compound Inhibitory Potency (Replicon EC50 (nM))” for “(1996).”

NS3/4A protease gt 1b = NS3/4A protease gt 1b (Hepatitis C virus genotype 1b, UniProt P26663); test: HCV NS3 protease time-resolved fluorescence (TRF) assay, NS3/4A inhibitory activity (Ki), gt 1b; format: biochemical; conditions: genotype 1b NS3/4A; read-out: Enzyme Activity gt 1b Ki
Description: as §1, §2, §3, §4
as §3, with “(1996); Mao et al., Analytical Biochemistry 373: 1-8, 2008. Measuring Compound Inhibitory Potency (Replicon EC50 (nM))” for “(1996).”

NS3/4A protease gt 3a = NS3/4A protease gt 3a (Hepatitis C virus genotype 3a, UniProt Q81258); test: HCV NS3 protease time-resolved fluorescence (TRF) assay, NS3/4A inhibitory activity (Ki), gt 3a; format: biochemical; conditions: genotype 3a NS3/4A; read-out: Enzyme Activity gt 3a Ki
Description: as §1, §2, §3, §4
as §3, with “(1996); Mao et al., Analytical Biochemistry 373: 1-8, 2008. Measuring Compound Inhibitory Potency (Replicon EC50 (nM))” for “(1996).”

[2] = 10% Fetal Bovine Serum, read-out: gt 1b Replicon EC50 10% FBS
[3] = 50% Normal Human Serum, read-out: gt 1b Replicon EC50 50% NHS

| SMILES | EC50 (gt 1b Replicon; [2]) | EC50 (gt 1b Replicon; [3]) | Ki [1] | Ki (NS3/4A protease gt 1b) | Ki (NS3/4A protease gt 3a) |
| --- | --- | --- | --- | --- | --- |
| C=C[C@@H]1C[C@]1(NC(=O)[C@@H]1C[C@@H]2CN1C(=O)[C@H](C(C)(C)C)NC(=O)O[C@]1(C)C[C@H]1CCC/C=C/c1cccc3c1CN(C3)C(=O)O2)C(=O)NS(=O)(=O)C1CC1 [Example I-5, (1aR,5S8S,10R,19E,23aR)-5-tert-butyl-N-{(1R,2S)-1-[(cyclopropylsulfonyl)carbamoyl]-2-ethenylcyclopropyl}-1a-methyl-3,6,12-trioxo-1a,3,4,5,6,9,10,14,21,22,23,23a-dodecahydro-1H,8H-7,10:13,15-dimethanocycloproa[n][4,13,2,8,11]benzodioxatriazacyclodocosine-8(12H)-carboxamide] | 3 nM | 22 nM | 1.3 nM | 0.02 nM | 1 nM |
| CC[C@@H]1C[C@]1(NC(=O)[C@@H]1C[C@@H]2CN1C(=O)[C@H](C1CCCC1)NC(=O)O[C@]1(C)C[C@H]1CC/C=C/Cn1c(nc3cc(C)ccc3c1=O)O2)C(=O)NS(=O)(=O)C1CC1 [Example I-31, (1aR,5S,8S,10R,20E,23aR)-5-cyclopentyl-N-{(1R,2R)-1-[(cyclopropylsulfonyl)carbamoyl]-2-ethylcyclopropyl}-1a,14-dimethyl-3,6,17-trioxo-1,1a,3,4,5,6,9,10,19,22,23,23a-dodecahydro-8H,17H-7,10-methanocyclo propa[18,19][1,10,3,6, 12]dioxatriazacyclo nonadecino[11,12-b]quinazoline-8-carboxamide] | 4 nM | 10 nM | 13.3 nM | 0.1 nM | 5.3 nM |
| C=C[C@@H]1C[C@]1(NC(=O)[C@@H]1C[C@@H]2CN1C(=O)[C@H](C1CCCC1)NC(=O)O[C@]1(C)C[C@H]1CCCCCc1nc3ccccc3nc1O2)C(=O)NS(=O)(=O)C1(C)CC1 [Example I-29, (1aR,5S,8S,10R,22aR)-5-cyclopentyl-N-[(1R,2S)-2-ethenyl-1-{[(1-methylcyclopropyl)sulfonyl]carbamoyl}cyclopropyl]-1a-methyl-3,6-dioxo-1,1a,3,4,5,6,9,10,18,19, 20,21,22,22a-tetradecahydro-8H-7,10-methanocyclo propa[18,19][1,10,3,6] dioxadiazacyclonona decino[11,12-b]quinoxaline-8-carboxamide] | 3 nM | 9 nM | 1.7 nM | 0.04 nM | 3.1 nM |
| C=C[C@@H]1C[C@]1(NC(=O)[C@@H]1C[C@@H]2CN1C(=O)[C@H](C1CCCC1)NC(=O)O[C@]1(C)C[C@H]1CCCCCc1nc3ccccc3nc1O2)C(=O)NS(=O)(=O)C1CC1 [Example I-28, (1aR,5S,8S,10R,22aR)-5-cyclopentyl-N-{(1R,2S)-1-[(cyclopropylsulfonyl)carbamoyl]-2-ethenylcyclopropyl}-1a-methyl-3,6-dioxo-1,1a,3,4,5,6,9,10,18,19, 20,21,22,22a-tetradecahydro-8H-7,10-methanocyclo propa[18,19][1,10,3,6] dioxadiazacyclonona decino[11,12-b]quinoxaline-8-carboxamide] | 2 nM | 10 nM | 2.7 nM | 0.04 nM | 3.2 nM |
| C=C[C@@H]1C[C@]1(NC(=O)[C@@H]1C[C@@H]2CN1C(=O)[C@H](C1CCCC1)NC(=O)O[C@]1(C)CCC[C@H]1CCCCCc1c(nc3ccccc3c1O)O2)C(=O)NS(=O)(=O)C1CC1 [Example I-16, (3aR,7S,10S,12R,24aR)-7-cyclopentyl-N-{(1R,2S)-1-[(cyclopropylsulfonyl)carbamoyl]-2-ethenylcyclopropyl}-19-hydroxy-3a-methyl-5,8-dioxo-1,2,3,3a,5,6,7,8,11,12,20,21,22,23,24, 24a-hexadecahydro-10H-9,12-methano cyclopenta[18,19][1,10,3,6]dioxadiazacyclo nonadecino[11,12-b]quinoline-10-carboxamide] | 9 nM | 27 nM | 2.4 nM | 0.02 nM | 1.4 nM |
| C=C[C@@H]1C[C@]1(NC(=O)[C@@H]1C[C@@H]2CN1C(=O)[C@H](C(C)(C)C)NC(=O)O[C@]1(C)C[C@H]1CCCCCc1nc3ccccc3nc1O2)C(=O)NS(=O)(=O)C1CC1 [Example I-8, (1aR,5S,8S,10R,22aR)-5-tert-butyl-N-{(1R,2S)-1-[(cyclopropylsulfonyl)carbamoyl]-2-ethenylcyclopropyl}-1a-methyl-3,6-dioxo-1,1a,3,4,5,6,9,10,18,19, 20,21,22,22a-tetra decahydro-8H-7,10-methanocyclopropa[18, 19][1,10,3,6]dioxatriaza cyclononadecino[11,12-b]quinoxaline-8-carboxamide] | 2 nM | 6 nM | 11.5 nM | 0.02 nM | 0.5 nM |
| C=C[C@@H]1C[C@]1(NC(=O)[C@@H]1C[C@@H]2CN1C(=O)[C@H](C(C)(C)C)NC(=O)O[C@]1(C)C[C@H]1CCCCc1cccc3c1CN(C3)C(=O)O2)C(=O)NS(=O)(=O)C1CC1 [Example I-20, (1aR,5S,8S,10R,22aR)-5-tert-butyl-N-{(1R,2S)-1-[(cyclopropylsulfonyl)carbamoyl]-2-ethenylcyclopropyl}-1a-methyl-3,6,12-trioxo-1,1a,3,4,5,6,9, 10,14,19,20,21,22,22a-tetradecahydro-8H-7,10:13,15-dimethano cyclopropa[n][4,13,2,8, 11]benzodioxatriaza cyclohenicosine-8(12H)-carboxamide] | – | – | 27.2 nM | 0.02 nM | 58.3 nM |

Reference: patent US20130178413A1, “HCV NS3 PROTEASE INHIBITORS” (priority 2010, published 2013)
